Data: article PMC12406685, “Thiazole substitution of a labile amide bond—a new option toward antiplasmodial pantothenamide-mimics” (Antimicrobial Agents and Chemotherapy, 2025)

Target: T1, HsPanK3 (Homo sapiens, UniProt Q9H999)
T1 sequence (Q9H999 12-368): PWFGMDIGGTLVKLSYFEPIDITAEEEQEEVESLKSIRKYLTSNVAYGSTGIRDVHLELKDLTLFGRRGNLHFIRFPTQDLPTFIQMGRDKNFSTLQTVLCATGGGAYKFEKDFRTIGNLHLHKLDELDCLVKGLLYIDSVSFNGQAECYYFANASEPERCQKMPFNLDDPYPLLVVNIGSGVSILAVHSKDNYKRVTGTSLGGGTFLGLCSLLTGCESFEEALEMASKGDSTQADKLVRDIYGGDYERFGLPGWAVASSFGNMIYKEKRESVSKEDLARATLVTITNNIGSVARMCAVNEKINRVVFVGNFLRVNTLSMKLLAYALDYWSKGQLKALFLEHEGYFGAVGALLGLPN
Assay: HsPanK kinetic assay (pyruvate kinase/lactic dehydrogenase coupled, NADH at 340 nm)
Format: biochemical
Parameters: catalytic core domain of human PanK3 (amino acid residues 12–368); made in house; host or cells: E. coli BL21(DE3)
Conditions: for Substrate inhibition of HsPanK3: at rising substrate concentration (0–2,000 µM)
Experimental: The gene encoding the catalytic core domain of human PanK3 (amino acid residues 12–368) was synthesized and cloned into the pET28a(+) expression vector using the NdeI and BamHI restriction sites to produce an N-terminal His6-tagged protein (Bio Basic Inc.). The plasmid was transformed into E. coli BL21(DE3) cells, which were cultured in Terrific Broth (TB) medium containing 50 µg/mL kanamycin at 37°C. When the culture reached an optical density at 600 nm (OD600) of 0.6, protein expression was induced by adding 1.0 mM isopropyl β-D-thiogalactoside (IPTG), followed by incubation at 18°C for 17–18 h. The cells were then harvested and resuspended in lysis buffer (20 mM Tris-HCl, pH 7.5, 500 mM NaCl, 5 mM imidazole, 5% [vol/vol] glycerol) supplemented with 1 mM PMSF (phenylmethylsulfonyl fluoride) and lysozyme (5 mg/g of the cell pellet). The suspension was then sonicated on ice, and the resulting lysate was centrifuged twice at 54,000 × g for 30 min at 4°C.
The clarified supernatant was incubated with Ni-NTA resin (Cytiva) pre-equilibrated with lysis buffer containing 5 mM imidazole at 4°C. After binding, the resin was washed with lysis buffer containing 30 mM imidazole, then eluted with lysis buffer containing 250 mM imidazole. The eluted HsPanK3 protein was dialyzed against storage buffer (20 mM Tris-HCl, pH 7.5, 200 mM NaCl, 5% [vol/vol] glycerol) and concentrated. The purified protein was stored at −80°C. Protein purity was assessed using SDS-PAGE and deemed >50% (Fig. S4).
The enzyme assay was adapted from a previously described method ([103]), which links the production of ADP to the consumption of NADH through the enzymatic activities of pyruvate kinase and lactic dehydrogenase. Reactions were conducted in 96-well microtiter plates, and the decrease in NADH concentration was measured at 340 nm at 30 s intervals after incubation at 30°C. Each reaction mixture (200 µL) contained the desired compound (substrate) at variable concentrations (0–2,000 µM), ATP (1.5 mM), NADH (0.3 mM), phospho(enol)pyruvate (2.0 mM), MgCl2 (10 mM), KCl (20 mM), a commercial pyruvate kinase/lactic dehydrogenase mixture (12 units, Sigma-Aldrich), and pantothenate kinase (0.48 µM) in 50 mM Tris–HCl buffer (pH 7.6). The reaction was initiated with the addition of ATP. The kinetic parameters were determined by fitting the rate data into the Michaelis–Menten equation using GraphPad Prism 8.0 with nonlinear regressions. Data were collected from three independent experiments, each performed in triplicate to verify the trends and optimize the selected concentrations. The kinetic parameters were calculated from the most complete triplicate set of data, and errors represent SEM.

[1] = relative to natural substrate pantothenate

SMILES | kcat of HsPanK3 compared with that of pantothenate, in words | Ki | Substrate inhibition of HsPanK3 | Fold higher Km of HsPanK3 for compound compared to pantothenate [1] | Fold lower kcat/Km of HsPanK3 compared to pantothenate [1]
CC(C)(CO)[C@@H](O)C(=O)NCc1nc(CCc2ccccc2)cs1 [Compound 1e] | slightly lower | – | – | – | –
CC(C)(CO)[C@@H](O)C(=O)NCc1csc(-c2ccccc2)n1 [Compound 2e] | same as | 4.34 mM | Substrate inhibition | 2.8 fold | –
CCCCCc1csc(CNC(=O)[C@H](O)C(C)(C)CO)n1 [Compound 1c] | same as | – | – | – | ~ 3 fold
CC(C)(CO)[C@@H](O)C(=O)NCc1csc(Cc2ccccc2)n1 [Compound 2c] | same as | 2.65 mM | Substrate inhibition | – | ~ 3 fold
CCCCc1csc(CNC(=O)[C@H](O)C(C)(C)CO)n1 [Compound 1a] | same as | – | – | – | –
CC(C)(CO)[C@@H](O)C(=O)NCc1cnc(-c2ccccc2)s1 [Compound 3f] | slightly higher | – | – | – | ~ 3 fold
